Reference: publication PMC10794144, “A novel antibiotic class targeting the lipopolysaccharide transporter” (Nature, 2024)
In brackets after ≈: the same amount, converted by molar mass. Where two headings read alike, the source gives them in different places.

Key:
S. aureus ATCC 29213 = assay: microbe, parasite or virus in culture; conditions: Staphylococcus aureus
Protocol: MIC determinations were performed using the broth microdilution method and in line with CLSI guidelines M07 and M100 (refs. [37],[38]). Bacterial inocula were prepared by diluting a 0.5 McFarland suspension in CAMHB or lysogeny broth (LB) specifically for A. baylyi isolates. […] MIC values of all of the tested antibiotics were read as the lowest compound concentration inhibiting bacterial growth by naked eye or beyond which the OD600 ceased to decrease.

Abl kinase = biological target: T1, Abl kinase (Homo sapiens, UniProt P00519); assay: Off-target screening (CEREP); assay type: biochemical; conditions: 10 µM, duplicates; read-out: percent inhibition
T1 construct: purchased Eurofins CEREP SA
Protocol: (§1) Supplementary Table 1 │ Off-target activity screening f or MCP compou nds […]
(§2) The assays given in the table above were conducted at Eurofins CEREP S A (Celle-Lévescault, France) and were run as single point measurements in duplicates in the presence of 10 µ M of the test compound and reported as percent inhibition of the radioligand signal or control enzymatic activity. n.d., not

Acetylcholinesterase = biological target: T2, Acetylcholinesterase (Homo sapiens, UniProt P22303); assay: Off-target screening (CEREP); assay type: biochemical; conditions: 10 µM, duplicates; read-out: percent inhibition
T2 construct: purchased Eurofins CEREP SA
Protocol: as §1, §2

[1] = biological target: T3, Angiotensin converting enzyme (Homo sapiens, UniProt P12821); assay: Off-target screening (CEREP); assay type: biochemical; conditions: 10 µM, duplicates; read-out: percent inhibition
T3 construct: purchased Eurofins CEREP SA
Protocol: as §1, §2

CDK2 = biological target: T4, CDK2 (Homo sapiens, UniProt P24941); assay: Off-target screening (CEREP); assay type: biochemical; conditions: 10 µM, duplicates; read-out: percent inhibition
T4 construct: purchased Eurofins CEREP SA
Protocol: as §1, §2

Cyclooxygenase 2 = biological target: T5, Cyclooxygenase 2 (Homo sapiens, UniProt P35354); assay: Off-target screening (CEREP); assay type: biochemical; conditions: 10 µM, duplicates; read-out: percent inhibition
T5 construct: purchased Eurofins CEREP SA
T5 sequence (P35354 18-604): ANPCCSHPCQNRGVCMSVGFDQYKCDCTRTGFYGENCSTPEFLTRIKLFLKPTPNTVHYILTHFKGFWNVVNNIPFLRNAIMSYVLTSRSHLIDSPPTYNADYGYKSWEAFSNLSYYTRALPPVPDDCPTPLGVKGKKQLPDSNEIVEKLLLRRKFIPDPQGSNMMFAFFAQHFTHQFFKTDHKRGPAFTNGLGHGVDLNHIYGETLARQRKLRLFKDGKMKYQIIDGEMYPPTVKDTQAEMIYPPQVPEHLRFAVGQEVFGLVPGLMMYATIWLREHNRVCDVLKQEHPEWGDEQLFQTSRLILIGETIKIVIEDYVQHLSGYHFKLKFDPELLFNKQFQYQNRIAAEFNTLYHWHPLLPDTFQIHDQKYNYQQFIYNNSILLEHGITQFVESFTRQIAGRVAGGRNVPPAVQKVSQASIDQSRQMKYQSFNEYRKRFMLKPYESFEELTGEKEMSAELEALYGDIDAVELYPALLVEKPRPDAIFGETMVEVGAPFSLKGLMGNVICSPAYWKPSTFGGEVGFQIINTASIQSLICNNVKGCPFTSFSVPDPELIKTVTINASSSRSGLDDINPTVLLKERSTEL
Protocol: as §1, §2

GSK-3A = biological target: T6, GSK-3A (Homo sapiens, UniProt P49840); assay: Off-target screening (CEREP); assay type: biochemical; conditions: 10 µM, duplicates; read-out: percent inhibition
T6 construct: purchased Eurofins CEREP SA
Protocol: as §1, §2

HIV-1 protease = assay: Off-target screening (CEREP); assay type: biochemical; conditions: 10 µM, duplicates
Protocol: as §1, §2

Matrix metalloprotease-9 = biological target: T7, Matrix metalloprotease-9 (Homo sapiens, UniProt P14780); assay: Off-target screening (CEREP); assay type: biochemical; conditions: 10 µM, duplicates; read-out: percent inhibition
T7 construct: purchased Eurofins CEREP SA
Protocol: as §1, §2

Monoamine oxidase-A = biological target: T8, Monoamine oxidase-A (Homo sapiens, UniProt P21397); assay: Off-target screening (CEREP); assay type: biochemical; conditions: 10 µM, duplicates; read-out: percent inhibition
T8 construct: purchased Eurofins CEREP SA
T8 sequence (P21397 1-527): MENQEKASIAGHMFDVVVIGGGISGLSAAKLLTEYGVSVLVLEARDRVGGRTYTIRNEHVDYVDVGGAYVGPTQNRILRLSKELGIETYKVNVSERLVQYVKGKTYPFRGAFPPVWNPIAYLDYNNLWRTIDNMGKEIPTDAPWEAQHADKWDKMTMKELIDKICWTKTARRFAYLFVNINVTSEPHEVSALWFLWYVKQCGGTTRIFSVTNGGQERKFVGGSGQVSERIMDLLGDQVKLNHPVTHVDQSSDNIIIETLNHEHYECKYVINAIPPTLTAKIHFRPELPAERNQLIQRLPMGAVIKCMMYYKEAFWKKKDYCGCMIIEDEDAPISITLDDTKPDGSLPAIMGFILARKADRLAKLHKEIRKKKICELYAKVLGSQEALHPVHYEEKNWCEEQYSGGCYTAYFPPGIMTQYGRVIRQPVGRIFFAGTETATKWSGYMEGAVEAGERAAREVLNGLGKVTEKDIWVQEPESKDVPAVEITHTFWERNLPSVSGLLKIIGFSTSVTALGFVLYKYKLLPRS
Protocol: as §1, §2

Phosphodiesterase 3B = biological target: T9, Phosphodiesterase 3B (Homo sapiens, UniProt Q13370); assay: Off-target screening (CEREP); assay type: biochemical; conditions: 10 µM, duplicates; read-out: percent inhibition
T9 construct: purchased Eurofins CEREP SA
Protocol: as §1, §2

Phosphodiesterase 4D2 = biological target: T10, Phosphodiesterase 4D2 (Homo sapiens, UniProt Q08499); assay: Off-target screening (CEREP); assay type: biochemical; conditions: 10 µM, duplicates; read-out: percent inhibition
T10 construct: purchased Eurofins CEREP SA
Protocol: as §1, §2

ZAP70 kinase = biological target: T11, ZAP70 kinase (Homo sapiens, UniProt P43403); assay: Off-target screening (CEREP); assay type: biochemical; conditions: 10 µM, duplicates; read-out: percent inhibition
T11 construct: purchased Eurofins CEREP SA
T11 sequence (P43403 1-619): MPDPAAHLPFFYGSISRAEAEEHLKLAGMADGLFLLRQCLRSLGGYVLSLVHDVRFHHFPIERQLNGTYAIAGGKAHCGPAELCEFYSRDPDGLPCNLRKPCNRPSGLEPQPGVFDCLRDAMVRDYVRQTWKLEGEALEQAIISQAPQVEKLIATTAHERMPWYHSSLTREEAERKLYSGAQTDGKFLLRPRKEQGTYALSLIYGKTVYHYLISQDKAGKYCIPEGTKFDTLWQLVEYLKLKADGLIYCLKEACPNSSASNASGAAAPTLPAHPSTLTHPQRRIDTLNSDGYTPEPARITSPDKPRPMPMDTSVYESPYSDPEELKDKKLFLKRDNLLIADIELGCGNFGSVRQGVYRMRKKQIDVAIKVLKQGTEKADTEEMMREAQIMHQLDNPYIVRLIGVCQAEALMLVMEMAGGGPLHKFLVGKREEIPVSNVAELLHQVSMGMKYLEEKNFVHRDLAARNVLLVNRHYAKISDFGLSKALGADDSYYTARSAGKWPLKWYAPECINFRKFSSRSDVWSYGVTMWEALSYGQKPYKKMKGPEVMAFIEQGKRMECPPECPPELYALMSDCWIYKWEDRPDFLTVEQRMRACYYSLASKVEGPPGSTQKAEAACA
Protocol: as §1, §2

Xanthine oxidase = biological target: T12, Xanthine oxidase (Bos taurus, UniProt P80457); assay: Off-target screening (CEREP); assay type: biochemical, bovine; conditions: 10 µM, duplicates; read-out: percent inhibition
T12 construct: purchased Eurofins CEREP SA
Protocol: as §1, §2

[2] = ATCC29213, CAMHB, mode of at least three replicates (RO7036668 one replicate)

T12 sequence (P80457 whole entry): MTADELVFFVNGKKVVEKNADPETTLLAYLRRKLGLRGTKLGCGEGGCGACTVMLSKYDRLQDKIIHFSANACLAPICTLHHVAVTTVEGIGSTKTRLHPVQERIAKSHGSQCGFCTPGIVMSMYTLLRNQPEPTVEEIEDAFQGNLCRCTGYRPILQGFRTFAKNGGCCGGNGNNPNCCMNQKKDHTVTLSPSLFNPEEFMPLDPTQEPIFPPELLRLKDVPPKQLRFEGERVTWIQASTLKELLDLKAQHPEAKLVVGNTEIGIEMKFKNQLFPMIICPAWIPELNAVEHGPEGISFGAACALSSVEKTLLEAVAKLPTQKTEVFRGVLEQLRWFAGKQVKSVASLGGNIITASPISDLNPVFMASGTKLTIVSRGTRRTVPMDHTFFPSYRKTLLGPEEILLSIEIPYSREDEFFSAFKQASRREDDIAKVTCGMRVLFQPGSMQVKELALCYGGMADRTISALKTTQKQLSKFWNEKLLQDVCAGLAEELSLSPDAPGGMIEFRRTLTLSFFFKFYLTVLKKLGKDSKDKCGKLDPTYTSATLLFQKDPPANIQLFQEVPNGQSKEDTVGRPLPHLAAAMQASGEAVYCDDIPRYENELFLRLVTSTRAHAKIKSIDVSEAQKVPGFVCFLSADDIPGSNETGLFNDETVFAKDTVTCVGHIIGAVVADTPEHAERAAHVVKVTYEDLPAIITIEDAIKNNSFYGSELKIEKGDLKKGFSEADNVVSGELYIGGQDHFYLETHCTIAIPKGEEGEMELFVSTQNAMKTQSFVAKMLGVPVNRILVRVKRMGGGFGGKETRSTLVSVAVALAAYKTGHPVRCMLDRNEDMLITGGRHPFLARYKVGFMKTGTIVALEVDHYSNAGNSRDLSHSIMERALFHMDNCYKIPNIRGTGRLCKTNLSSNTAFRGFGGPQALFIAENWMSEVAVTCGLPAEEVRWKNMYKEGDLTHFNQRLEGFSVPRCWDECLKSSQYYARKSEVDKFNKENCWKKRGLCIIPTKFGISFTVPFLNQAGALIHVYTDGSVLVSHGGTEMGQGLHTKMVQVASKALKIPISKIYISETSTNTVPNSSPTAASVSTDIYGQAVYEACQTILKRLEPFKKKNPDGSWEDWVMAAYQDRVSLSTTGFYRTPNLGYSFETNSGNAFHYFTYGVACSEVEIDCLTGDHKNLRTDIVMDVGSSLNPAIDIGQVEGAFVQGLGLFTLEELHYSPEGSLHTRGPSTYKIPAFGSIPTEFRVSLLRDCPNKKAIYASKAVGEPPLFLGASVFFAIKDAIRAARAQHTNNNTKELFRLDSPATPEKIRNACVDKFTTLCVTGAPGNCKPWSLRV
T9 sequence (Q13370 whole entry): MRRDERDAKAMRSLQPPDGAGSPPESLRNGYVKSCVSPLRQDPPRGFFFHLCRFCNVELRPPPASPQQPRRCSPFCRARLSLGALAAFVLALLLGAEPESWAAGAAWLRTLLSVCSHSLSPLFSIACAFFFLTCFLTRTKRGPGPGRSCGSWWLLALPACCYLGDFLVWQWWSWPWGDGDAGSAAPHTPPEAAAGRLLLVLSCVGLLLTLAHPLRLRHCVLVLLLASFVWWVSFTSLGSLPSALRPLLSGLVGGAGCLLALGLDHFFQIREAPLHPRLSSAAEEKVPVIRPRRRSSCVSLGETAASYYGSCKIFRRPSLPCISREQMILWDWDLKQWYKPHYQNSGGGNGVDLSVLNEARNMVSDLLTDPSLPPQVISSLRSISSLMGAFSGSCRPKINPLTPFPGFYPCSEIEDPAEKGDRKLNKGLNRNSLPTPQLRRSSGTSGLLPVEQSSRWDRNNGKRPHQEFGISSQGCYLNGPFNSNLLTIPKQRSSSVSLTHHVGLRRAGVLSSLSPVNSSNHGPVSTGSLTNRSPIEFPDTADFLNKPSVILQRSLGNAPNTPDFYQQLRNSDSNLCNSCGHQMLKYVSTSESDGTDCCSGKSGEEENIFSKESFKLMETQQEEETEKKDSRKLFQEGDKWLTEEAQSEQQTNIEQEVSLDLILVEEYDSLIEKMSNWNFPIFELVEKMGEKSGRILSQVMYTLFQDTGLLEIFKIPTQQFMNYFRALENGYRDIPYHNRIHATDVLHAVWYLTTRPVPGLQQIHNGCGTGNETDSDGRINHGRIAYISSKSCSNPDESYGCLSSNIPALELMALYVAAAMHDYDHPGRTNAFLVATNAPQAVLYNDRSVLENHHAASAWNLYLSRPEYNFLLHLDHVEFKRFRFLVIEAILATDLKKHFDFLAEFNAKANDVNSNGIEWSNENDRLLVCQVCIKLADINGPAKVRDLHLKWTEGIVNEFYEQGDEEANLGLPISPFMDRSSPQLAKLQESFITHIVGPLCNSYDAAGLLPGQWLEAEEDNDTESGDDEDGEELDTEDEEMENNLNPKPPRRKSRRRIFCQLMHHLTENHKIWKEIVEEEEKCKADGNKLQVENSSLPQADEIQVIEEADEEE
T1 sequence (P00519 whole entry): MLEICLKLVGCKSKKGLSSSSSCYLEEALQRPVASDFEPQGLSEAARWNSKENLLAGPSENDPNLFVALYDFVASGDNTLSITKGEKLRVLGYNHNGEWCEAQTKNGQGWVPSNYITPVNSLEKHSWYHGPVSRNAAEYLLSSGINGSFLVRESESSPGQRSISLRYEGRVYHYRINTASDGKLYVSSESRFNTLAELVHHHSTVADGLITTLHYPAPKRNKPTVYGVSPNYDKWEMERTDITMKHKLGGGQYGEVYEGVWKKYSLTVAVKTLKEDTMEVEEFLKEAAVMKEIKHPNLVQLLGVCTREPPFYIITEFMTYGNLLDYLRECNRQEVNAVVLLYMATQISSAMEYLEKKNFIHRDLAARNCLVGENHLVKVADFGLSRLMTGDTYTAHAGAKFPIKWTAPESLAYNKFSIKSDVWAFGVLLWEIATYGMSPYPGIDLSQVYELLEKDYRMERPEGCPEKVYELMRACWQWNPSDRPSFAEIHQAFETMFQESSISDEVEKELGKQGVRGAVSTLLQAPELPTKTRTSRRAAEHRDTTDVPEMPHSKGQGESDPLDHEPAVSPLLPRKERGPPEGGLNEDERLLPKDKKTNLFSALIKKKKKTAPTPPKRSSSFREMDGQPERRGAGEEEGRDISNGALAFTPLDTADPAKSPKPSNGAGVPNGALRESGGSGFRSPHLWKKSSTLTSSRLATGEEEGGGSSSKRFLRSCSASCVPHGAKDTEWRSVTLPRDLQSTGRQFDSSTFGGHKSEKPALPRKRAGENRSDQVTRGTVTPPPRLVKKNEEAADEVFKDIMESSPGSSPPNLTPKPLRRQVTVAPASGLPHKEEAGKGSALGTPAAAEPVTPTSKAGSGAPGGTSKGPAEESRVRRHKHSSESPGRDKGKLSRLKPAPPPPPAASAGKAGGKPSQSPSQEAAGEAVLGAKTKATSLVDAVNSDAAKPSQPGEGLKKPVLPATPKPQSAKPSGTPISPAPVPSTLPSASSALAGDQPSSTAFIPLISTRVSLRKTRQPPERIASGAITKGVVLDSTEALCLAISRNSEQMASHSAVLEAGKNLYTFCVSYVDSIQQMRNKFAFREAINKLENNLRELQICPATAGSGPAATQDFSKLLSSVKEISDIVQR
T3 sequence (P12821 30-1306): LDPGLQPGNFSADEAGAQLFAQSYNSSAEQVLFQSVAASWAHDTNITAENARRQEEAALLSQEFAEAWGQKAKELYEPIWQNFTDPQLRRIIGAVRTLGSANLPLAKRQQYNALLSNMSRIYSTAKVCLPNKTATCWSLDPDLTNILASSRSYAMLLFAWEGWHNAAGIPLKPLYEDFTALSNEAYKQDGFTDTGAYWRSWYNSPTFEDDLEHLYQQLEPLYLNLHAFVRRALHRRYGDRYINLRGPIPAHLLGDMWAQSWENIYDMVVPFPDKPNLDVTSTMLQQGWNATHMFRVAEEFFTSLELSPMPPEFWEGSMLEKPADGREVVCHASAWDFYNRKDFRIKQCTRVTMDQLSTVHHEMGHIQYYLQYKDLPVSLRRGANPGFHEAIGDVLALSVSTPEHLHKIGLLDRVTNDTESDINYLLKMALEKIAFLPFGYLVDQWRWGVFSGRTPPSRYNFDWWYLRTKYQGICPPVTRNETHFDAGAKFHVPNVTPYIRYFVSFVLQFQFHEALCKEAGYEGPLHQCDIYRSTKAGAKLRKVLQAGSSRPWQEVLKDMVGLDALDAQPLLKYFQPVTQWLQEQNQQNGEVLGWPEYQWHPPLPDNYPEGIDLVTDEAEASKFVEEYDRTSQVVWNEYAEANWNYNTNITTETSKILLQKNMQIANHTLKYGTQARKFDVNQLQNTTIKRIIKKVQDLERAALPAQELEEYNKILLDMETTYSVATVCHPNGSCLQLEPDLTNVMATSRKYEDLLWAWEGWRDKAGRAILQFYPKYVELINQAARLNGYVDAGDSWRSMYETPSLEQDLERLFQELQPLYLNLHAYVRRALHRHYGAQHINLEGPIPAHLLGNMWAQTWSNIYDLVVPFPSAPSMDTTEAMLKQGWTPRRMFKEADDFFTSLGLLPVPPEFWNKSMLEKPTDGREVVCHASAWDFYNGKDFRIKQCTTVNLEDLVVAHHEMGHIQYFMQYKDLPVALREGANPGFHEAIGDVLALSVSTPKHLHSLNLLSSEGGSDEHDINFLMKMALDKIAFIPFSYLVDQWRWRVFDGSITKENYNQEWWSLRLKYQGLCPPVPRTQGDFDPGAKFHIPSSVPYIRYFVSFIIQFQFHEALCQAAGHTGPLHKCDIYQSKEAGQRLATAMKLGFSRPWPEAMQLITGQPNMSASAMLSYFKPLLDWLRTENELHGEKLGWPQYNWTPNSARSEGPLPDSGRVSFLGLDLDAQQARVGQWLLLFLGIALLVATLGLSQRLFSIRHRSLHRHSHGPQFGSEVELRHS

## CN1C(=O)[C@H](CCCCN)NC(=O)[C@H](CCCN)NCc2cccnc2Sc2c(Cl)ccc(-c3ccc(C(=O)O)cc3)c2CNC(=O)[C@@H]1Cc1c[nH]c2ccccc12 [RO7202110]
S. aureus ATCC 29213; [2]
  MIC: > 64 µg/mL
Abl kinase
  inhibition at 10 µM: -24%
Acetylcholinesterase
  inhibition at 10 µM: 40%
[1]
  inhibition at 10 µM: 3%
CDK2
  inhibition at 10 µM: 17%
Cyclooxygenase 2
  inhibition at 10 µM: 12%
GSK-3A
  inhibition at 10 µM: 22%
HIV-1 protease
  percent inhibition: 12%
Matrix metalloprotease-9
  inhibition at 10 µM: 13%
Monoamine oxidase-A
  inhibition at 10 µM: 11%
Phosphodiesterase 3B
  inhibition at 10 µM: 2%
Phosphodiesterase 4D2
  inhibition at 10 µM: -3%
ZAP70 kinase
  inhibition at 10 µM: -39%
Xanthine oxidase
  inhibition at 10 µM: 0%

## C[C@@H](O)[C@H]1C(=O)N2C(C(=O)O)=C(S[C@@H]3CN[C@H](C(=O)N(C)C)C3)[C@H](C)[C@H]12 [meropenem, reference compound]
S. aureus ATCC 29213; [2]
  MIC: 0.12 µg/mL (≈ 0.313 µM)
S. aureus ATCC 29213; ATCC29213, read-out: MIC 100%, Study LGC277937, 100%
  MIC: 0.12 µg/mL (≈ 0.313 µM)
S. aureus ATCC 29213; ATCC29213, read-out: MIC 100%, Study LGC279800, 100%
  MIC: ≤ 0.06 µg/mL
S. aureus ATCC 29213; ATCC29213, read-out: MIC 100%, Study LGC281440, 100%
  MIC: 0.12 µg/mL (≈ 0.313 µM)
S. aureus ATCC 29213; ATCC29213, read-out: MIC 100%, Study LGC282160, 100%
  MIC: ≤ 0.06 µg/mL
S. aureus ATCC 29213; ATCC29213, read-out: MIC 100%, Study LGC282623, 100%
  MIC: 0.12 µg/mL (≈ 0.313 µM)
S. aureus ATCC 29213; ATCC29213, read-out: MIC 100%, Study LGC283932, 100%
  MIC: 0.12 µg/mL (≈ 0.313 µM)
S. aureus ATCC 29213; ATCC29213, read-out: MIC 100%, Study LGC284200, 100%
  MIC: 0.12 µg/mL (≈ 0.313 µM)
S. aureus ATCC 29213; ATCC29213, read-out: MIC 100%, Study LGC284879, 100%
  MIC: 0.12 µg/mL (≈ 0.313 µM)
S. aureus ATCC 29213; ATCC29213, read-out: MIC 100%, Study LGC285582, 100%
  MIC: 0.12 µg/mL (≈ 0.313 µM)
S. aureus ATCC 29213; ATCC29213, read-out: MIC 100%, Study LGC286210, 100%
  MIC: 0.25 µg/mL (≈ 0.652 µM)
S. aureus ATCC 29213; ATCC29213, read-out: MIC 100%, Study LGC293598, 100%
  MIC: 0.12 µg/mL (≈ 0.313 µM)
S. aureus ATCC 29213; ATCC29213, read-out: MIC 100%, Study LGC294355, 100%
  MIC: ≤ 0.06 µg/mL
S. aureus ATCC 29213; ATCC29213, read-out: MIC 100%, Study LGC295147, 100%
  MIC: 0.12 µg/mL (≈ 0.313 µM)
S. aureus ATCC 29213; ATCC29213, read-out: MIC 100%, Study LGC296813, 100%
  MIC: ≤ 0.06 µg/mL
S. aureus ATCC 29213; ATCC29213, read-out: MIC 100%, Study LGC299544, 100%
  MIC: 0.12 µg/mL (≈ 0.313 µM)
S. aureus ATCC 29213; ATCC29213, read-out: MIC 100%, Study LGC301026, 100%
  MIC: 0.12 µg/mL (≈ 0.313 µM)
S. aureus ATCC 29213; ATCC29213, read-out: MIC 100%, Study LGC308175, 100%
  MIC: ≤ 0.06 µg/mL
S. aureus ATCC 29213; ATCC29213, read-out: MIC 100%, Study ROC003, 100%
  MIC: ≤ 0.06 µg/mL
S. aureus ATCC 29213; ATCC29213, read-out: MIC 100%, Study ROC004, 100%
  MIC: ≤ 0.06 µg/mL
S. aureus ATCC 29213; ATCC29213, read-out: MIC 100%, Study ROC005, 100%
  MIC: ≤ 0.06 µg/mL
S. aureus ATCC 29213; ATCC29213, read-out: MIC 100%, Study ROC006, 100%
  MIC: 0.12 µg/mL (≈ 0.313 µM)
S. aureus ATCC 29213; ATCC29213, read-out: MIC 100%, Study ROC007, 100%
  MIC: 0.12 µg/mL (≈ 0.313 µM)
S. aureus ATCC 29213; ATCC29213, read-out: MIC 100%, Study ROC008, 100%
  MIC: 0.12 µg/mL (≈ 0.313 µM)
S. aureus ATCC 29213; ATCC29213, read-out: MIC 100%, Study ROC009, 100%
  MIC: ≤ 0.06 µg/mL
S. aureus ATCC 29213; ATCC29213, read-out: MIC 100%, Study ROC010, 100%
  MIC: ≤ 0.06 µg/mL
S. aureus ATCC 29213; ATCC29213, read-out: MIC 100%, Study ROC012, 100%
  MIC: ≤ 0.06 µg/mL
S. aureus ATCC 29213; ATCC29213, read-out: MIC 100%, Study ROC013, 100%
  MIC: 0.12 µg/mL (≈ 0.313 µM)
